Reference: US20240239775A1, “FXR REGULATOR, PREPARATION METHOD THEREFOR, PHARMACEUTICAL COMPOSITION THEREOF AND USE THEREOF” (QINGDAO RUIJI MEDICAL TECHNOLOGY CO., LTD., priority 2021, published 2024)

Target: T1, FXR (Homo sapiens, UniProt Q96RI1)
T1 construct: 5 μL of 20 nM FXR-LBD Complete Coregulator buffer G; purchased ThermoFisher PV4833
T1 sequence (Q96RI1 262-486 limits assumed): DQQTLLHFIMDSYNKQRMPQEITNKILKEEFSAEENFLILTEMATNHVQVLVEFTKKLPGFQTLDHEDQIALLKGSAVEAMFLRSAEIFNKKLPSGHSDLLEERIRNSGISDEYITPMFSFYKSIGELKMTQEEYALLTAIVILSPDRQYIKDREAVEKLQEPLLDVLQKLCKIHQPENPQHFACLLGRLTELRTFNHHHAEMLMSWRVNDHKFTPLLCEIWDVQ
Assay: FXR antagonist screening by TR-FRET (LanthaScreen TR-FRET FXR co-activation assay kit)
Assay type: biochemical
Settings: Table 1.2, FXR antagonistic activity; TR-FRET with CDCA; geometric means of at least two independent runs
Procedure, shortened: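 FXR-LBD (20 nM working solution) mixed with compound, CDCA (200 μM working solution) as agonist, Fluorescein-SRC2-2 and Tb-anti-GST antibody in Coregulator buffer G; 10 h at room temperature. Coactivator recruitment read by TR-FRET, triplicate wells.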

| Compound | IC50 |
| --- | --- |
| CCOC(=O)c1oc2ccc(S(=O)(=O)N(CCc3ccccc3)c3ccccc3N3CCN(C(=O)c4ccccc4Cc4ccccc4)CC3)cc2c1C [Example M10-134, Ethyl 5-(N-(2-(4-(2-benzylbenzoyl)piperazin-1-yl)phenyl)-N-phenethylsulfamoyl)3-methylbenzofuran-2-carboxylate] | 50 to 100 µM |
| CCOC(=O)c1oc2ccc(S(=O)(=O)N(CCc3ccccc3)c3ccccc3N3CCN(C(=O)c4c(C)cc(C)cc4C)CC3)cc2c1C [Example M10-135, Ethyl 5-(N-(2-(4-(2,4,6-trimethylbenzoyl)piperazin-1-yl)phenyl)-N-phenethylsulfamoyl)3-methylbenzofuran-2-carboxylate] | 50 to 100 µM |
| CCOC(=O)c1oc2ccc(S(=O)(=O)N(CCc3ccccc3)c3ccccc3N3CCN(C(=O)c4ccccc4OC)CC3)cc2c1C [Example M10-136, Ethyl 5-(N-(2-(4-(2-methoxybenzoyl)piperazin-1-yl)phenyl)-N-phenethylsulfamoyl)3-methylbenzo furan-2-carboxylate] | 50 to 100 µM |
| CCOC(=O)c1oc2ccc(S(=O)(=O)N(CCc3ccccc3)c3ccccc3N3CCN(C(=O)c4cc(C)ccc4C)CC3)cc2c1C [Example M10-137, Ethyl 5-(N-(2-(4-(2,5-Dimethylbenzoyl)piperazin-1-yl)phenyl)-N-phenethylsulfamoyl)3-methylbenzofuran-2-carboxylate] | 50 to 100 µM |
| CCOC(=O)c1oc2ccc(S(=O)(=O)N(CCc3ccccc3)c3ccccc3N3CCN(C(=O)c4ccc(C#Cc5ccccc5)cc4)CC3)cc2c1C [Example M10-138, Ethyl 5-(N-(2-(4-(4-(phenylethynyl)benzoyl)piperazin-1-yl)phenyl)-N-phenethylsulfamoyl)3-methylbenzofuran-2-carboxylate] | 50 to 100 µM |
| CCOC(=O)c1oc2ccc(S(=O)(=O)N(CCc3ccccc3)c3ccccc3N3CCN(C(=O)c4ccc(C)s4)CC3)cc2c1C [Example M10-139, Ethyl 5-(N-(2-(4-(5-methylthiophene-2-formyl)piperazin-1-yl)phenyl)-N-phenethylsulfamoyl)3-methylbenzofuran-2-carboxylate] | 50 to 100 µM |
| CCOC(=O)c1oc2ccc(S(=O)(=O)N(CCc3ccccc3)c3ccccc3N3CCN(C(=O)c4cc(C)cs4)CC3)cc2c1C [Example M10-140, Ethyl 5-(N-(2-(4-(4-methylthiophene-2-formyl)piperazin-1-yl)phenyl)-N-phenethylsulfamoyl)3-methylbenzofuran-2-carboxylate] | 50 to 100 µM |
| CCOC(=O)c1oc2ccc(S(=O)(=O)N(CCc3ccccc3)c3ccccc3N3CCN(C(=O)c4sccc4C)CC3)cc2c1C [Example M10-141, Ethyl 5-(N-(2-(4-(3-methylthiophene-2-formyl)piperazin-1-yl)phenyl)-N-phenethylsulfamoyl)3-methylbenzofuran-2-carboxylate] | 50 to 100 µM |
| CCOC(=O)c1oc2ccc(S(=O)(=O)N(CCc3ccccc3)c3ccccc3N3CCN(C(=O)c4ncc[nH]4)CC3)cc2c1C [Example M10-142, Ethyl 5-(N-(2-(4-(1H-imidazole-2-formyl)piperazin-1-yl)phenyl)-N-phenethylsulfamoyl)3-methylbenzofuran-2-carboxylate] | 50 to 100 µM |
| CCOC(=O)c1oc2ccc(S(=O)(=O)N(CCc3ccccc3)c3ccccc3N3CCN(C(=O)C4CCCS4)CC3)cc2c1C (stereo not drawn) [Example M10-143, Ethyl 5-(N-(2-(4-(tetrahydrothiophene-2-formyl)piperazin-1-yl)phenyl)-N-phenethylsulfamoyl)3-methylbenzofuran-2-carboxylate] | 50 to 100 µM |
| CCOC(=O)c1oc2ccc(S(=O)(=O)N(CCc3ccccc3)c3ccccc3N3CCN(C(=O)c4c[nH]cn4)CC3)cc2c1C [Example M10-144, Ethyl 5-(N-(2-(4-(1H-imidazole-4-carbonyl)piperazin-1-yl)phenyl)-N-phenethylsulfamoyl)3-methylbenzofuran-2-carboxylate] | 50 to 100 µM |
| CCOC(=O)c1oc2ccc(S(=O)(=O)N(CCc3ccccc3)c3ccccc3N3CCN(C(=O)C(CC)CC)CC3)cc2c1C [Example M10-145, Ethyl 5-(N-(2-(4-(2-ethylbutyryl)piperazin-1-yl)phenyl)-N-phenethylsulfamoyl)3-methylbenzofuran-2-carboxylate] | 50 to 100 µM |
| CCOC(=O)c1oc2ccc(S(=O)(=O)N(CCc3ccccc3)c3ccccc3N3CCN(C(=O)c4ccno4)CC3)cc2c1C [Example M10-146, Ethyl 5-(N-(2-(4-(isoxazole-5-carbonyl)piperazin-1-yl)phenyl)-N-phenethylsulfamoyl)3-methylbenzofuran-2-carboxylate] | 50 to 100 µM |
| CCOC(=O)c1oc2ccc(S(=O)(=O)N(CCc3ccccc3)c3ccccc3N3CCC(NC(=O)c4sccc4Br)CC3)cc2c1C [Example M10-147, ethyl 5-(N-(2-(4-(3-bromothiophene-2-carboxamido)piperidin-1-yl)phenyl)-N-phenethylsulfamoyl)-3-methylbenzofuran-2-carboxylate] | 50 to 100 µM |
| CCOC(=O)c1oc2ccc(S(=O)(=O)N(CCc3ccccc3)c3ccccc3N3CCC4(CCN(C(=O)c5sccc5Br)C4)CC3)cc2c1C [Example M10-148] | 50 to 100 µM |
| CCOC(=O)c1oc2ccc(S(=O)(=O)N(CCc3ccccc3)c3ccccc3N3CC4(CCN(C(=O)c5sccc5Br)CC4)C3)cc2c1C [Example M10-149, Ethyl 5-(N-(2-(7-(3-bromothiophene-2-carbonyl)-2,7-diazaspiro[3.5]nonan-2-yl)phenyl)-N-phenethylsulfamoyl)-3-methylbenzofuran-2-carboxylate] | 50 to 100 µM |
| CCOC(=O)c1oc2ccc(S(=O)(=O)N(CCc3ccccc3)c3ccccc3N3CCC4(CC3)CN(C(=O)c3sccc3Br)C4)cc2c1C [Example M10-150] | 50 to 100 µM |
| CCOC(=O)c1oc2ccc(S(=O)(=O)N(CCc3ccccc3)c3ccccc3N3CC4CC(C3)N4C(=O)c3sccc3Br)cc2c1C [Example M10-151, Ethyl 5-(N-(2-(6-(3-bromothiophene-2-carbonyl)-3,6-diazabicyclo[3.1.1]heptan-3-yl)phenyl)-N-phenethylsulfamoyl)-3-methylbenzofuran-2-carboxylate] | 50 to 100 µM |
| CCOC(=O)c1oc2ccc(S(=O)(=O)N(CCc3ccccc3)c3ccccc3N3CCN(C(=O)c4sccc4Br)C[C@@H]3C)cc2c1C [Example M10-152, (S)-ethyl-5-(N-(2-(4-(3-bromothiophene-2-carbonyl)-2-methylpiperazin-1-yl)phenyl)-N-phenethylsulfamoyl)-3-methylbenzofuran-2-carboxylate] | 50 to 100 µM |
| CCOC(=O)c1oc2ccc(S(=O)(=O)N(CCc3ccccc3)c3ccccc3N3CCN(C(=O)c4sccc4Br)C[C@H]3C)cc2c1C [Example M10-153, (R)-ethyl-5-(N-(2-(4-(3-bromothiophene-2-carbonyl)-2-methylpiperazin-1-yl)phenyl)-N-phenethylsulfamoyl)-3-methylbenzofuran-2-carboxylate] | 50 to 100 µM |
| CCOC(=O)c1oc2ccc(S(=O)(=O)N(CCc3ccccc3)c3ccccc3N3CCCN(C(=O)c4sccc4Br)CC3)cc2c1C [Example M10-154, Ethyl 5-(N-(2-(4-(3-bromothiophene-2-formyl)-1,4-diazepin-1-yl)phenyl)-N-phenethylsulfamoyl)-3-methylbenzofuran-2-carboxylate] | 50 to 100 µM |
| CCOC(=O)c1oc2ccc(S(=O)(=O)N(CCc3ccccc3)c3ccccc3N3C4CCC3CN(C(=O)c3sccc3Br)C4)cc2c1C [Example M10-155, Ethyl 5-(N-(2-(3-(3-bromothiophene-2-formyl)-3,8-diazepine[3.2.1]cyclooctan-8-yl)phenyl)-N-phenethylsulfamoyl)3-methylbenzofuran-2-carboxylate] | 50 to 100 µM |
| CCOC(=O)c1oc2ccc(S(=O)(=O)N(CCc3ccccc3)c3ccccc3N3CCN(C(=O)c4sccc4Br)C(C)C3)cc2c1C (stereo not drawn) [Example M10-156, Ethyl 5-(N-(2-(4-(3-bromothiophene-2-formyl)-3-methylpiperazin-1-yl)phenyl)-N-phenethylsulfamoyl)3-methylbenzofuran-2-carboxylate] | 50 to 100 µM |
| CCOC(=O)c1oc2ccc(S(=O)(=O)N(CCc3ccccc3)c3ccccc3N3CC4CC3CN4C(=O)c3sccc3Br)cc2c1C (stereo not drawn) [Example M10-157, Ethyl 5-(N-(2-(5-(3-bromothiophene-2-formyl)-2,5-diazabicyclo[2.2.1]hept-2-yl)phenyl)-N-phenethylsulfamoyl)3-methylbenzofuran-2-carboxylate] | 50 to 100 µM |
| CCOC(=O)c1sc2ccc(S(=O)(=O)N(CCc3ccccc3)c3ccccc3N3CCN(C(=O)c4sccc4Br)CC3)cc2c1C [Example M10-158, ethyl 5-(N-(2-(4-(3-bromothiophene-2-carbonyl)piperazin-1-yl)phenyl)-N-phenethylsulfamoyl)-3-toluothiophene-2-carboxylate] | 50 to 100 µM |
| CCOC(=O)c1cc2cc(S(=O)(=O)N(CCc3ccccc3)c3ccccc3N3CCN(C(=O)c4sccc4Br)CC3)ccc2s1 [Example M10-159, Ethyl 5-(N-(2-(4-(3-bromothiophene-2-carbonyl)piperazin-1-yl)phenyl)-N-phenethylsulfamoyl)benzo[b]thiophene-2-carboxylate] | 50 to 100 µM |
| CCOC(=O)c1cc2ccc(S(=O)(=O)N(CCc3ccccc3)c3ccccc3N3CCN(C(=O)c4sccc4Br)CC3)cc2s1 [Example M10-160, Ethyl 6-(N-(2-(4-(3-bromothiophene-2-carbonyl)piperazin-1-yl)phenyl)-N-phenethylsulfamoyl)benzo[b]thiophene-2-carboxylate] | 50 to 100 µM |
